Data as given in patent US7326420B2, “Benzoyl peroxide compositions having increased potency” (priority 2001, dated 2008).
One block for each compound: values may come before it.

Tests used:
[1] = Polymerization of tetraethylene glycol dimethacrylate (gel formation) as a test of BP radical activity; format: physicochemical; conditions: agent in combination with BP, 3% w/w in tetraethylene glycol dimethacrylate, oven 90 to 100 degrees Celsius
Text: Methods: Polymerization of tetra ethylene glycol dimethacrylate was used as a test of BP radical activity. Solutions of BP, antibiotics, and BP and antibiotics were made at 3% w/w in tetraethylene glycol dimethacrylate. All of the antibiotics except erythromycin (ERY) were obtained from prescription pills, which were crushed in a crucible. The portion of the pills that disolved in tetraethylene glycol dimethacrylate were used in the experiment. ERY was obtained in powdered form from Benzamycin® acne treatments. Aliquots of ten drops of these solutions were placed in an eight well plastic plate. The samples were heated in an oven that maintained a temperature range between 90 to 100 degrees Celsius. After various amounts of time the samples were taken out of the oven and tested for gel formation. Polymerization of tetraethylene glycol dimethacrylate was detected visually by swirling a spatula in the solutions. Gelling constituted an indicator of BP radical activity.

[2] = test system: Candida albicans isolates; assay: Checkerboard microdilution susceptibility test (MIC alone and in combination, FICI); format: cell-based
Procedure: (§1) The object of this preliminary study was to discover the in vitro effect of the addition of benzoyl peroxide to terbinafine when tested against Candida albicans, Pseudomonas aeruginosa, and Staphylococcus aureus isolates, using a checkerboard microdilution method. […]
(§2) In this study, ten serial dilutions of terbinafine (starting at 32 μg/ml) and benzoyl peroxide (starting at 3%) were tested alone and in combination against ten Candida albicans isolates from the culture collection at the Center for Medical Mycology. Both susceptible and fluconazole-resistant strains were included. Two strains each of Pseudomonas aeruginosa and Staphylococcus aureus were also tested.
(§3) The individual minimum inhibitory concentrations (MICs) of terbinafine and BP against each isolate were determined according to the NCCLS M27-A2 and M07-A6 standards for yeasts and aerobic bacteria, respectively.
(§4) The effect of combining benzoyl peroxide with terbinafine was evaluated using a checkerboard assay. This test method is a modification of the microdilution antifungal susceptibility test (NCCLS M27A2) wherein two antifungal agents are combined in varying concentrations to determine whether they have a synergistic, additive, or antagonistic effect on the respective minimum inhibitory concentration (MIC) values.
(§5) Two antifungal agents were serially diluted in RPMI to produce ten concentrations of the drugs under investigation. The range was chosen to include achievable serum levels of the drugs. The two drugs were then combined into wells of a microtiter plate so that the concentration of one drug increases as that of the other decreased. Two rows consisting of serial dilutions of each individual drug were also included. Comparison of the MICs of the individual antifungal agents to the MIC of the combined agents was indicative of their relative efficacy.
(§6) [formula] The combination of two drugs was reported as synergistic (<0.5), additive (0.5<FICI <1.0), indifferent (1.0<FICI <4.0), or antagonistic (.4.0).

[3] = test system: Pseudomonas aeruginosa isolates; assay: as above; format: cell-based
Procedure: as §1, §2, §3, §4, §5, §6

[4] = test system: Staphylococcus aureus isolates; assay: as above; format: cell-based
Procedure: as §1, §2, §3, §4, §5, §6

[5] = C. albicans (n = 10), individual compound
[6] = Ps. aeruginosa (n = 2), individual compound
[7] = S. aureus (n = 2), individual compound

effect of the agent on BP radical activity (speed of polymerization of tetraethylene glycol dimethacrylate) [1]: did not augment BP radical activity
SMILES: N[C@@H]1[C@H]2CN(c3nc4c(cc3F)c(=O)c(C(=O)O)cn4-c3ccc(F)cc3F)C[C@@H]12 [trovofloxacin]

number of isolates with MIC of Terbinafine 8 μg/ml [2, 5]: 1
number of isolates with MIC of Terbinafine >32 μg/ml [2, 5]: 9
MIC ([2]; Candida albicans, read-out: MIC of terbinafine alone): > 32 µg/mL
number of isolates with MIC of Terbinafine >32 μg/ml [3, 6]: 2
MIC ([3]; Pseudomonas aeruginosa, read-out: MIC of terbinafine alone): > 32 µg/mL
number of isolates with MIC of Terbinafine >32 μg/ml [4, 7]: 2
MIC ([4]; Staphylococcus aureus, read-out: MIC of terbinafine alone): > 32 µg/mL
SMILES: CN(C/C=C/C#CC(C)(C)C)Cc1cccc2ccccc12 [Terbinafine, terbinafine]

effect of the agent on BP radical activity (speed of polymerization of tetraethylene glycol dimethacrylate) [1]: polymerize the fastest
SMILES: CC[C@H]1OC(=O)[C@H](C)[C@@H](O[C@H]2C[C@@](C)(OC)[C@@H](O)[C@H](C)O2)[C@H](C)[C@@H](O[C@@H]2O[C@H](C)C[C@H](N(C)C)[C@H]2O)[C@](C)(O)C[C@@H](C)C(=O)[C@H](C)[C@@H](O)[C@]1(C)O [ERY, erythromycin]

number of isolates with MIC of Benzoyl Peroxide 0.38% [2, 5]: 6
number of isolates with MIC of Benzoyl Peroxide 3.0% [2, 5]: 4
number of isolates with MIC of Benzoyl Peroxide 0.09% [3, 6]: 2
number of isolates with MIC of Benzoyl Peroxide 1.5% [4, 7]: 2
SMILES: O=C(OOC(=O)c1ccccc1)c1ccccc1 [Benzoyl Peroxide, Benzoyl peroxide]
